In PubChem BioAssay (NCI):
Several values for one entry are separate records, joined by “and”; a condition that tells them apart may be missing. Equal values may be shown once.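 All cell lines were grown in 96-well plates and treated with compound for 48 hours. The concentration for 50% growth inhibition is given as GI50. The concentration for full growth arrest is given as TGI.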

Columns and labels:
Assay in all cases: NCI-60 cell line screen, 48 h
SW-620 colon = system: SW-620 colon
HL-60(TB) leukemia = system: HL-60(TB) leukemia
MALME-3M melanoma = system: MALME-3M melanoma
SNB-19 CNS = system: SNB-19 CNS
CAKI-1 renal = system: CAKI-1 renal
NCI-H522 lung = system: NCI-H522 lung
TK-10 renal = system: TK-10 renal
HCT-116 colon = system: HCT-116 colon
NCI/ADR-RES ovarian = system: NCI/ADR-RES ovarian
T-47D breast = system: T-47D breast

Structure (SMILES)	TGI (SW-620 colon)	TGI (HL-60(TB) leukemia)	TGI (MALME-3M melanoma)	TGI (SNB-19 CNS)	TGI (CAKI-1 renal)	TGI (NCI-H522 lung)	TGI (TK-10 renal)	TGI (HCT-116 colon)	GI50 (SW-620 colon)	GI50 (HL-60(TB) leukemia)	GI50 (MALME-3M melanoma)	GI50 (SNB-19 CNS)	GI50 (CAKI-1 renal)	GI50 (NCI-H522 lung)	TGI (NCI/ADR-RES ovarian)	TGI (T-47D breast)	GI50 (TK-10 renal)	GI50 (HCT-116 colon)	GI50 (NCI/ADR-RES ovarian)
COC(=O)C#CCC1CCCC1C1SCCS1 (configuration not stated)	> 100 µM	> 100 µM	> 100 µM	> 100 µM	> 100 µM	> 100 µM	> 100 µM	> 100 µM											
O=C(COc1ccc(Cl)cc1)N1CCN(C(=O)COc2ccc(Cl)cc2)c2ccccc21	> 100 µM	37.2 µM	> 100 µM			> 100 µM	> 100 µM	> 100 µM											
COc1cccc2c1[C@H]1CO[C@H]3C4C[C@H](C(=O)O)C([C@@H](C2)N13)N4C (some centres not stated)	8.4 µM and 5.82 µM	4.03 µM and 1.85 µM	4.8 µM and 1.6 µM	> 100 µM	6.06 µM and 28.8 µM	0.914 µM and 0.109 µM	5.71 µM		3.61 µM	0.368 µM	0.696 µM	3.81 µM	2.17 µM and 2.9 µM	0.0497 µM	7.74 µM				
O=C(NCC(=O)N1CCOC1=O)OCc1ccccc1	> 100 µM	> 100 µM		> 100 µM		> 100 µM	> 100 µM	> 100 µM											
CCCCCCCCCCCCCP(=O)(NCC(N)=O)OCC (configuration not stated)	41 µM	38.2 µM	32.6 µM	34.3 µM			37.4 µM	28 µM											
COc1cc2c(cc1-c1coc3cc(OCC=C(C)C)ccc3c1=O)OCO2	> 100 µM	35.7 µM		> 100 µM	58.5 µM	48.9 µM	> 100 µM	51.4 µM								> 100 µM			
O=C(O)[C@@H](NS(=O)(=O)c1ccc2ccccc2c1)c1ccccc1		> 100 µM	> 100 µM	> 100 µM	> 100 µM	> 100 µM													
O=C(CCc1nc(=S)[nH][nH]1)Nc1cccc(C(F)(F)F)c1	28.5 µM	> 100 µM	> 100 µM	> 100 µM	> 100 µM	> 100 µM	> 100 µM	> 100 µM											
N.N.N.N.N.O=S(=O)([O-])C(F)(F)F.O=S(=O)([O-])C(F)(F)F.[Os+8]	41.4 µM	36.2 µM	19.9 µM		30.6 µM		95.4 µM	18 µM	8.48 µM	8.92 µM	4.53 µM		6.61 µM				33 µM	5.37 µM	
O=C1/C(=C/c2cccc(Br)c2)COc2ccc(O)c(O)c21	3.52 µM	4.05 µM	3.06 µM	3.04 µM	2.47 µM	0.361 µM	3.1 µM	2.47 µM	1.06 µM	0.969 µM	1.49 µM	1.53 µM	1.21 µM	0.175 µM	10.3 µM		1.7 µM	1.08 µM	2.03 µM
CC(=O)NNc1nc(C)c(C(=O)/C=C/c2ccc(/C=C/C(=O)c3sc(NNC(C)=O)nc3C)cc2)s1	> 100 µM	> 100 µM	> 100 µM	> 100 µM	> 100 µM	> 100 µM	> 100 µM	> 100 µM											
Cc1ccc(Sc2oc(-c3ccc(C)cc3)nc2[P+](c2ccccc2)(c2ccccc2)c2ccccc2)cc1	1.32 µM	0.566 µM	0.813 µM	1.47 µM	1.06 µM	0.379 µM	1.85 µM	1.26 µM	0.338 µM	0.23 µM	0.241 µM	0.375 µM	0.283 µM	0.148 µM	2.21 µM		0.447 µM	0.26 µM	0.49 µM
COc1cccc(C2C(C#N)=C(N)Oc3c2ccc2ccccc32)c1 (configuration not stated)	17.8 µM	0.0629 µM		20.5 µM	14 µM		27.3 µM	3.42 µM	< 0.015 µM	0.0244 µM		0.0322 µM	< 0.01 µM	< 0.01 µM	0.391 µM		5.71 µM	< 0.0128 µM	< 0.01 µM
COC1(C)C(=O)N2C1N(C(=O)OCc1ccccc1)CC2(C)C (configuration not stated)	> 100 µM	> 100 µM	> 100 µM	> 100 µM			> 100 µM	> 100 µM											
Cc1cc(C)nc(NS(=O)(=O)c2ccc(NC(=O)c3cccn4c(=O)c5ccccc5nc34)cc2)n1	> 100 µM	44.1 µM		> 100 µM		42.6 µM	> 100 µM	> 100 µM											
CN1CCc2c1nc(-c1cccnc1)c1c2N(C)CC1	> 100 µM	> 100 µM	> 100 µM	> 100 µM	> 100 µM		> 100 µM	> 100 µM											
CCN(CC)CCCC(C)Nc1c(Sc2cnc3cc(Cl)ccc3c2NC(C)CCCN(CC)CC)cnc2cc(Cl)ccc12 (configuration not stated)	2.92 µM	3.62 µM	3.71 µM		2.86 µM	3.15 µM	3.24 µM	2.95 µM											

Structure (SMILES)	TGI (SW-620 colon)	TGI (HL-60(TB) leukemia)	TGI (MALME-3M melanoma)	TGI (SNB-19 CNS)	TGI (CAKI-1 renal)	TGI (NCI-H522 lung)	TGI (TK-10 renal)	TGI (HCT-116 colon)	GI50 (SW-620 colon)	GI50 (HL-60(TB) leukemia)	GI50 (MALME-3M melanoma)	GI50 (SNB-19 CNS)	GI50 (CAKI-1 renal)	GI50 (NCI-H522 lung)	TGI (NCI/ADR-RES ovarian)	TGI (T-47D breast)	GI50 (TK-10 renal)	GI50 (HCT-116 colon)	GI50 (NCI/ADR-RES ovarian)
COCCOCOC(C)(C)[C@H](CCOC(C)=O)O[Si](c1ccccc1)(c1ccccc1)C(C)(C)C	> 100 µM	10.4 µM	55.3 µM	> 100 µM	> 100 µM	29.4 µM	87.1 µM	> 100 µM											
COc1cc(/C=C\c2ccncc2)cc(OC)c1OC	> 100 µM	> 100 µM	> 100 µM	> 100 µM	> 100 µM	> 100 µM	> 100 µM	> 100 µM											
COc1ccc(-c2onc(-c3c(C)cc(C)cc3C)c2C2=NCCN2)cc1	> 100 µM	59.3 µM	74.1 µM	> 100 µM	> 100 µM			> 100 µM											
O=C(N/C(=C\c1cc(Cl)ccc1Cl)c1nc2ccc(Cl)cc2[nH]1)c1ccccc1	31.1 µM	37.1 µM	35.8 µM	60.1 µM	66.4 µM	25 µM	10.9 µM	22.3 µM											
Clc1ccccc1NN(Cc1ccncc1)c1ccccc1Cl	35.1 µM	37 µM	35.9 µM	37 µM		29.6 µM		25.7 µM							32 µM				
CC(=O)[CH-]C(=O)Nc1ccccc1.CC(=O)[CH-]C(=O)Nc1ccccc1.CC[O-].CC[O-].[Ti+4]	> 100 µM		> 100 µM	> 100 µM	> 100 µM	> 100 µM	> 100 µM	> 100 µM	> 100 µM		> 100 µM	> 100 µM	> 100 µM	> 100 µM			> 100 µM	> 100 µM	
Cc1ccc(NC(=O)CC2SC(N)=NC2=O)cc1C (configuration not stated)	> 100 µM	> 100 µM	> 100 µM	> 100 µM	> 100 µM	> 100 µM	> 100 µM	> 100 µM											
C#C[C@H]1CCCCCC1O (some centres not stated)	69.8 µM	> 100 µM	> 100 µM	> 100 µM	> 100 µM	> 100 µM	> 100 µM	> 100 µM											
Cc1nc2c(sc(=S)n2-c2ccccc2)c2nc3ccccc3n12		> 100 µM	> 100 µM	> 100 µM	> 100 µM	> 100 µM	> 100 µM												
Nc1ncnc2c1nnn2C1C=C(CO)C(O)C1O (configuration not stated)	> 63.1 µM	28.5 µM	> 100 µM	> 100 µM	> 100 µM	> 100 µM	> 100 µM	> 53.3 µM											
COC/N=C(/N)NC#N	33.6 µM	> 100 µM	> 100 µM	> 100 µM	> 100 µM	> 100 µM	> 100 µM	> 100 µM											
NC(=O)C12CC3CC(CC(Br)(C3)C1)C2	> 100 µM	> 100 µM		> 100 µM	> 100 µM	> 100 µM	> 100 µM	> 100 µM											
CCSc1nc(N)c(C#N)c(-c2ccco2)c1C#N	> 100 µM	> 100 µM		> 100 µM	67.6 µM	> 100 µM	78.1 µM	> 100 µM	42.2 µM	39.8 µM		51.2 µM	13.7 µM	91.5 µM	> 100 µM		21.3 µM	26.8 µM	34 µM
CC1=C(Cl)C[C@@H](/C(C)=C\Cl)O[C@@]1(O)C(Br)Br	> 100 µM	38.1 µM	79.8 µM	> 100 µM	35.4 µM	49.3 µM	> 100 µM	> 100 µM											
CCN(C(=O)CN1CCN(c2cc3c(cc2F)c(=O)c(C(=O)O)cn3CC)CC1)c1nc(-c2ccccc2)cs1	> 100 µM	0.47 µM	0.66 µM	> 100 µM	> 100 µM	0.813 µM	> 100 µM	> 100 µM	0.412 µM	0.199 µM	0.214 µM	0.451 µM	0.312 µM	0.259 µM	> 100 µM		0.408 µM	0.378 µM	0.331 µM
CCC[CH2][Sn]([CH2]CCC)([O]C(=O)/C=C/c1ccccc1F)[O]C(=O)/C=C/c1ccccc1F	0.479 µM	4.87 µM	1.6 µM	2.07 µM	1.79 µM	0.185 µM	2.03 µM	2.52 µM	0.205 µM	0.536 µM	0.385 µM	0.788 µM	0.436 µM	0.0798 µM			0.898 µM	1.05 µM	
